# How the values were obtained:
# Testpflanzen [1] = assay: Pre-emergence test (herbicidal damage to test plants); type: in vivo; conditions: damage rated after three weeks against untreated control, compared with Vergleichssubstanz (A) (Oxadiazone/Ronstar)
# Text: Lösungsmittel: 5 Gewichtsteile Aceton Emulgator: 1 Gewichtsteil Alkylarylpolyglykolether
# (§1) Zur Herstellung einer zweckmäßigen Wirkstoffzubereitung vermischt man 1 Gewichtsteil Wirkstoff mit der angegebenen Menge Lösungsmittel, gibt die angegebene Menge Emulgator zu und verdünnt das Konzentrat mit Wasser auf die gewünschte Konzentration.
# Samen der Testpflanzen werden in normalen Boden ausgesät und nach 24 Stunden mit der Wirkstoffzubereitung begossen. Dabei hält man die Wassermenge pro Flächeneinheit zweckmäßigerweise konstant. Die Wirkstoffkonzentration in der Zubereitung spielt keine Rolle, entscheidend ist nur die Aufwandmenge des Wirkstoffs pro Flächeneinheit. Nach drei Wochen wird der Schädigungsgrad der Pflanzen bonitiert in % Schädigung im Vergleich zur Entwicklung der unbehandelten Kontrolle. Es bedeuten: 0 % = keine Wirkung (wie unbehandelte Kontrolle) 100 % = totale Vernichtung
# Testpflanzen [2] = assay: Post-emergence test (herbicidal damage to test plants); type: in vivo; conditions: plants 5 - 15 cm, 2000 l Wasser/ha, damage rated after three weeks, compared with Vergleichssubstanz (A) (Oxadiazone/Ronstar)
# Text: Lösungsmittel: 5 Gewichtsteil Aceton Emulgator: 1 Gewichtsteil Alkylarylpolyglykolether
# as §1
# Mit der Wirkstoffzubereitung spritzt man Testpflanzen, welche eine Höhe von 5 - 15 cm haben so, daß die jeweils gewünschten Wirkstoffmengen pro Flächeneinheit ausgebracht werden. Die Konzentration der Spritzbrühe wird so gewählt, daß in 2000 l Wasser/ha die jeweils gewünschten Wirkstoffmengen ausgebracht werden. Nach drei Wochen wird der Schädigungsgrad der Pflanzen bonitiert in % Schädigung im Vergleich zur Entwicklung der unbehandelten Kontrolle.
# Es bedeuten: 0 % = keine Wirkung (wie unbehandelte Kontrolle) 100 % = totale Vernichtung
Molecule,Wirksamkeit gegenüber der Vergleichssubstanz (A) (Testpflanzen [1]),Wirksamkeit gegenüber der Vergleichssubstanz (A) (Testpflanzen [2])
"2-(3,4-Dihydro-3-oxo-4-propargyl-2H-1,4-benzoxazinyl)-3-chloro-4,5,6,7-tetrahydro-2H-indazol [Beispiel 31]",deutliche Überlegenheit,deutliche Überlegenheit
"7-Fluor-6-trimethylpyrazolyl-4-propargyl-3,4-dihydro-3-oxo-2H-1,4-benzoxazin [Beispiel 4]",deutliche Überlegenheit,deutliche Überlegenheit
"C#CCN1C(=O)COc2cc(F)c(-n3nc(C(C)(C)C)oc3=O)cc21 [Beispiel 5, 7-Fluor-4-propargyl-6-(2-tert-butyl-5-oxo-4,5-dihydro-1H-1,3,4-oxadiazol-3-yl)-3,4-dihydro-3-oxo-2H-1,4-benzoxazin]",deutliche Überlegenheit,deutliche Überlegenheit
"O=C1COc2ccc(-n3nc4c(c3Cl)CCCC4)cc2N1 [Beispiel 30, 2-(3,4-dihydro-3-oxo-2H-1,4-benzoxazinyl)-3-chloro-4,5,6,7-tetrahydro-2H-indazol]",deutliche Überlegenheit,
"CC(C)(C)c1nn(-c2cc3c(cc2F)OCC(=O)N3)c(=O)o1 [Beispiel 3, 7-Fluor-6-(2-tert-butyl-5-oxo-4,5-dihydro-1H-1,3,4-oxadiazol-3-yl)-3,4-dihydro-3-oxo-2H-1,4-benzoxazin]",deutliche Überlegenheit,deutliche Überlegenheit
"C#CCN1C(=O)COc2cc(F)c(-n3nc(C)c(Cl)c3C)cc21 [Beispiel 24, 7-Fluor-6-(3,5-dimethyl-4-chlorpyrazol)-4-propargyl-3,4-dihydro-3-oxo-2H-1,4-benzoxazin]",deutliche Überlegenheit,

# Reference: patent EP0334055A2, “Substituted benzoxazinones, several processes and intermediates for their preparation and their use as herbicides” (BAYER AG, priority 1988, dated 1989)
